Reference: PubChem BioAssay (NCI)
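GI50 marks 50% less growth. TGI denotes the concentration required for complete inhibition of growth.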

How the values were obtained:
Experiment in all cases: NCI tumour cell line growth inhibition, 384-well format; in the data active = GI50 below about 0.43 µM; inactive = the rest
PC-3 prostate = tested on: PC-3 prostate
IGROV1 ovarian = tested on: IGROV1 ovarian
SN12C renal = tested on: SN12C renal
COLO 205 colon = tested on: COLO 205 colon
HCC-2998 colon = tested on: HCC-2998 colon
NCI-H23 lung = tested on: NCI-H23 lung
CCRF-CEM leukemia = tested on: CCRF-CEM leukemia
MOLT-4 leukemia = tested on: MOLT-4 leukemia
SF-295 CNS = tested on: SF-295 CNS
SF-539 CNS = tested on: SF-539 CNS
LOX IMVI melanoma = tested on: LOX IMVI melanoma
MCF7 breast = tested on: MCF7 breast
NCI/ADR-RES ovarian = tested on: NCI/ADR-RES ovarian
OVCAR-8 ovarian = tested on: OVCAR-8 ovarian
MDA-MB-435 melanoma = tested on: MDA-MB-435 melanoma
HS 578T breast = tested on: HS 578T breast
T-47D breast = tested on: T-47D breast
UO-31 renal = tested on: UO-31 renal
BT-549 breast = tested on: BT-549 breast
KM12 colon = tested on: KM12 colon
NCI-H322M lung = tested on: NCI-H322M lung
OVCAR-3 ovarian = tested on: OVCAR-3 ovarian
HCT-116 colon = tested on: HCT-116 colon
SW-620 colon = tested on: SW-620 colon
CAKI-1 renal = tested on: CAKI-1 renal
HOP-62 NSCLC = tested on: HOP-62 NSCLC
U251 glioblastoma = tested on: U251 glioblastoma
ACHN renal = tested on: ACHN renal
RXF 393 renal = tested on: RXF 393 renal
OVCAR-4 ovarian = tested on: OVCAR-4 ovarian
786-0 renal = tested on: 786-0 renal
SK-MEL-5 melanoma = tested on: SK-MEL-5 melanoma
A549 NSCLC = tested on: A549 NSCLC
EKVX NSCLC = tested on: EKVX NSCLC
SK-OV-3 ovarian = tested on: SK-OV-3 ovarian
SNB-19 CNS = tested on: SNB-19 CNS
M14 melanoma = tested on: M14 melanoma
DU-145 prostate = tested on: DU-145 prostate
SNB-75 CNS = tested on: SNB-75 CNS
UACC-257 melanoma = tested on: UACC-257 melanoma
K-562 leukemia = tested on: K-562 leukemia
MDA-MB-231 breast = tested on: MDA-MB-231 breast
HT29 colon = tested on: HT29 colon
TK-10 renal = tested on: TK-10 renal
SF-268 CNS = tested on: SF-268 CNS
NCI-H522 lung = tested on: NCI-H522 lung
HOP-92 NSCLC = tested on: HOP-92 NSCLC
NCI-H226 lung = tested on: NCI-H226 lung
RPMI-8226 leukemia = tested on: RPMI-8226 leukemia
NCI-H460 NSCLC = tested on: NCI-H460 NSCLC
SR leukemia = tested on: SR leukemia
HCT-15 colon = tested on: HCT-15 colon
MDA-MB-468 breast = tested on: MDA-MB-468 breast
OVCAR-5 ovarian = tested on: OVCAR-5 ovarian
A498 renal = tested on: A498 renal
SK-MEL-28 melanoma = tested on: SK-MEL-28 melanoma
MALME-3M melanoma = tested on: MALME-3M melanoma
HL-60(TB) leukemia = tested on: HL-60(TB) leukemia
UACC-62 melanoma = tested on: UACC-62 melanoma
SK-MEL-2 melanoma = tested on: SK-MEL-2 melanoma

CNC(=O)c1cc(Oc2ccc3nc(N[C@@H]4CCCC[C@H]4O)sc3c2)ccn1
83.2 µM: TGI (RXF 393 renal)
23.3 µM: TGI (SR leukemia)
> 100 µM: TGI (PC-3 prostate) | TGI (IGROV1 ovarian) | TGI (SN12C renal) | TGI (COLO 205 colon) | TGI (HCC-2998 colon) | TGI (NCI-H23 lung) | TGI (CCRF-CEM leukemia) | TGI (MOLT-4 leukemia) | TGI (SF-295 CNS) | TGI (SF-539 CNS) | TGI (LOX IMVI melanoma) | TGI (MCF7 breast) | TGI (NCI/ADR-RES ovarian) | TGI (OVCAR-8 ovarian) | TGI (MDA-MB-435 melanoma) | TGI (HS 578T breast) | TGI (T-47D breast) | TGI (UO-31 renal) | TGI (BT-549 breast) | TGI (KM12 colon) | TGI (NCI-H322M lung) | TGI (OVCAR-3 ovarian) | TGI (HCT-116 colon) | TGI (SW-620 colon) | TGI (CAKI-1 renal) | TGI (HOP-62 NSCLC) | TGI (U251 glioblastoma) | TGI (ACHN renal) | TGI (OVCAR-4 ovarian) | TGI (786-0 renal) | TGI (A549 NSCLC) | TGI (EKVX NSCLC) | TGI (SK-OV-3 ovarian) | TGI (SNB-19 CNS) | TGI (M14 melanoma) | TGI (DU-145 prostate) | TGI (SNB-75 CNS) | TGI (UACC-257 melanoma) | TGI (K-562 leukemia) | TGI (MDA-MB-231 breast) | TGI (HT29 colon) | TGI (TK-10 renal) | TGI (SF-268 CNS) | TGI (NCI-H522 lung) | TGI (HOP-92 NSCLC) | TGI (NCI-H226 lung) | TGI (NCI-H460 NSCLC) | TGI (HCT-15 colon) | TGI (OVCAR-5 ovarian) | TGI (A498 renal) | TGI (SK-MEL-28 melanoma) | TGI (MALME-3M melanoma) | TGI (HL-60(TB) leukemia)
45.3 µM: TGI (MDA-MB-468 breast)
42.2 µM: TGI (SK-MEL-5 melanoma)
inactive: GI50 (PC-3 prostate) 71.3 µM | GI50 (IGROV1 ovarian) > 100 µM | GI50 (SN12C renal) > 100 µM | GI50 (COLO 205 colon) > 100 µM | GI50 (HCC-2998 colon) > 100 µM | GI50 (NCI-H23 lung) 45.3 µM | GI50 (CCRF-CEM leukemia) 39.3 µM | GI50 (MOLT-4 leukemia) 31.7 µM | GI50 (SF-295 CNS) 41.7 µM | GI50 (SF-539 CNS) 89.1 µM | GI50 (LOX IMVI melanoma) 72.2 µM | GI50 (MCF7 breast) 34.7 µM | GI50 (NCI/ADR-RES ovarian) 24.2 µM | GI50 (OVCAR-8 ovarian) 59 µM | GI50 (MDA-MB-435 melanoma) > 100 µM | GI50 (HS 578T breast) 46.1 µM | GI50 (T-47D breast) 33.4 µM | GI50 (UO-31 renal) > 100 µM | GI50 (BT-549 breast) 60.4 µM | GI50 (KM12 colon) > 100 µM | GI50 (NCI-H322M lung) > 100 µM | GI50 (OVCAR-3 ovarian) > 100 µM | GI50 (HCT-116 colon) 53 µM | GI50 (SW-620 colon) > 100 µM | GI50 (CAKI-1 renal) > 100 µM | GI50 (HOP-62 NSCLC) 51.1 µM | GI50 (U251 glioblastoma) 73.2 µM | GI50 (ACHN renal) > 100 µM | GI50 (RXF 393 renal) 25.8 µM | GI50 (OVCAR-4 ovarian) 40.3 µM | GI50 ([…]-0 renal) > 100 µM | GI50 (SK-MEL-5 melanoma) 19.8 µM | GI50 (A549 NSCLC) > 100 µM | GI50 (EKVX NSCLC) 58.9 µM | GI50 (SK-OV-3 ovarian) > 100 µM | GI50 (SNB-19 CNS) > 100 µM | GI50 (M14 melanoma) > 100 µM | GI50 (DU-145 prostate) > 100 µM | GI50 (SNB-75 CNS) 68.8 µM | GI50 (UACC-257 melanoma) 48.4 µM | GI50 (K-562 leukemia) 35.1 µM | GI50 (MDA-MB-231 breast) 60 µM | GI50 (HT29 colon) > 100 µM | GI50 (TK-10 renal) 84.8 µM | GI50 (SF-268 CNS) > 100 µM | GI50 (NCI-H522 lung) 59 µM | GI50 (HOP-92 NSCLC) > 100 µM | GI50 (NCI-H226 lung) 35.2 µM | GI50 (RPMI-8226 leukemia) 18.9 µM | GI50 (NCI-H460 NSCLC) 48 µM | GI50 (SR leukemia) 10.5 µM | GI50 (HCT-15 colon) 34.4 µM | GI50 (MDA-MB-468 breast) 12.3 µM | GI50 (OVCAR-5 ovarian) > 100 µM | GI50 (A498 renal) > 100 µM | GI50 (SK-MEL-28 melanoma) > 100 µM | GI50 (MALME-3M melanoma) 56.2 µM | GI50 (HL-60(TB) leukemia) 22.2 µM
69.1 µM: TGI (RPMI-8226 leukemia)

OCCn1cc(-c2cnc3nnn(Cc4ccc5ncccc5c4)c3n2)cn1
inactive: GI50 (IGROV1 ovarian) > 100 µM | GI50 (SN12C renal) > 100 µM | GI50 (COLO 205 colon) > 100 µM | GI50 (NCI-H23 lung) > 100 µM | GI50 (CCRF-CEM leukemia) > 100 µM | GI50 (UACC-62 melanoma) > 100 µM | GI50 (MCF7 breast) > 100 µM | GI50 (UO-31 renal) > 100 µM | GI50 (HOP-62 NSCLC) > 100 µM | GI50 (SK-MEL-2 melanoma) > 100 µM | GI50 (ACHN renal) > 100 µM | GI50 (OVCAR-4 ovarian) > 100 µM | GI50 ([…]-0 renal) > 100 µM | GI50 (SNB-19 CNS) > 100 µM | GI50 (M14 melanoma) > 100 µM | GI50 (DU-145 prostate) > 100 µM | GI50 (K-562 leukemia) > 100 µM | GI50 (TK-10 renal) > 100 µM | GI50 (HOP-92 NSCLC) > 100 µM | GI50 (NCI-H226 lung) > 100 µM | GI50 (MDA-MB-468 breast) > 100 µM | GI50 (OVCAR-5 ovarian) > 100 µM
> 100 µM: TGI (IGROV1 ovarian) | TGI (SN12C renal) | TGI (COLO 205 colon) | TGI (NCI-H23 lung) | TGI (CCRF-CEM leukemia) | TGI (UACC-62 melanoma) | TGI (MCF7 breast) | TGI (UO-31 renal) | TGI (HOP-62 NSCLC) | TGI (SK-MEL-2 melanoma) | TGI (ACHN renal) | TGI (OVCAR-4 ovarian) | TGI (786-0 renal) | TGI (SNB-19 CNS) | TGI (M14 melanoma) | TGI (DU-145 prostate) | TGI (K-562 leukemia) | TGI (TK-10 renal) | TGI (HOP-92 NSCLC) | TGI (NCI-H226 lung) | TGI (MDA-MB-468 breast) | TGI (OVCAR-5 ovarian)
